This note sets out measurements from patent US10874685B2, “Pancreatic cancer therapy and diagnosis” (Deutsches Krebsforschungszentrum Stiftung des Öffentlichen …, priority 2014, dated 2020).

One test deals with PANC-1 cells. Kind of test: Transwell (Boyden chamber) migration assay, PANC-1. The test is classed as cell-based, human. The note with it: PANC-1, Boyden chamber, increasing doses, 4 h.
In the next test the test system is MIAPaCa-2 xenograft. Description: Combination therapy in NSG mice, MIAPaCa-2 xenograft model. Format: in vivo. Particulars: i.p. 16 days; pimozide 10 mg/kg daily; gemcitabine 20 mg/kg every 4 days.

Entries after “also recorded” stand apart in the source; their conditions may differ.

From the text for MIAPaCa-2 xenograft: Tumor volumes normalized to initial measurement shown in the y-axis every four days following treatment with either vehicle (gray line), the chemotherapeutic gemcitabine (green line), a combination therapy of 2-deoxy-D-glucose, atorvastatin and pimozide (2DG+ATR+Pim, redline), or a combination therapy of 2DG+ATR+Pim and gemcitabine (2DG+ATR+Pim+Gem, red dashed line) (FIG. 12A). […] Tumor weight (FIG. 12C) and volume of samples (FIG. 12D) harvested following treatment with, from left to right, control (Vehicle), 2DG+ATR, Pim alone, Pim+2DG+ATR, Gem alone, 2DG+ATR+Gem, Pim+Gem, or Pim+2DG+ATR+Gem.
NOD severe combined immunodeficiency gamma (NSG) mice were subcutaneously injected in the right flank with five million MIAPaCa-2 cells. Once tumors were detectable (200 mm^3), mice were randomized into 8 groups (5 in each group) and treated through intraperitoneal injection as indicated for 16 days. All drugs were given every day whereas gemcitabine was given every 4 days, alone or in combination. Experiment was terminated when control animals became moribund. The growth of tumors was measured every 4 days. Tumors were harvested and photographed. Tumor weights and volumes were measured.
The efficacy of the combined treatment approach was investigated using a MIAPaCa-2 xenograft model of pancreatic cancer.

Turning to `O=c1[nH]c2ccccc2n1C1CCN(CCCC(c2ccc(F)cc2)c2ccc(F)cc2)CC1` [pimozide], the migrated cells result in the test on PANC-1 cells was “significantly reduced migrated cells; also recorded: Dose dependent inhibitory effect”. For the same compound, in the test with MIAPaCa-2 xenograft, the tumor volume entry was “reduced tumor weight and volume”; the tumor weight result is “reduced tumor weight”.
